Data reported in US9303042B2, “Triazolothienopyrimidine compound inhibitors of urea transporters and methods of using inhibitors” (The Regents of the University of California, priority 2012, dated 2016).

Experiments:
UT = conditions: literature; cited from earlier work
UT-B = biological target: T1, UT-B (Mus musculus, UniProt Q8VHL0); assay: Transepithelial urea transport in MDCK cells stably expressing UT-B; assay type: cell-based; conditions: phloretin 100 μM
T1 sequence (Q8VHL0 1-384): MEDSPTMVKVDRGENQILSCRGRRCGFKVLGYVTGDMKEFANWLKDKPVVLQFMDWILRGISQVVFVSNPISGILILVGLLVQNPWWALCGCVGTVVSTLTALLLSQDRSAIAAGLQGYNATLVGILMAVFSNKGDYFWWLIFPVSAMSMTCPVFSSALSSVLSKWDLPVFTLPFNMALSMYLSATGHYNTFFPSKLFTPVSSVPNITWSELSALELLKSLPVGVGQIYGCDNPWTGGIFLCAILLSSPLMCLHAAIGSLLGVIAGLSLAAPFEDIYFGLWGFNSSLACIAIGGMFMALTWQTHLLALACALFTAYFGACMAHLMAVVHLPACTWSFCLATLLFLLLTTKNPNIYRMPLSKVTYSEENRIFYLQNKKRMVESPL
Experimental: (§1) UT-B selectivity and cytotoxicity were studied. Because of sequence similarities between UT-B and UT-A isoforms, UT-A inhibition was measured. Transepithelial urea transport was measured in MDCK cells stably expressing UT-A1, UT-A3, and UT-B. UT-A1 and UT-A3 are cAMP-regulated urea transporters expressed in kidney tubule epithelia (see, e.g., Frohlich et al., Am. J. Physiol. Cell Physiol. 291:C600-606 (2006); Tickle et al., Am. J. Physiol. Regul. Integr. Comp Physiol 0.297: R323-329 (2009); Stewart et al., Am. J. Physiol. Renal Physiol. 292:F1157-63 (2006)). MDCK cells were cultured on collagen-coated porous filters for measurement of urea accumulation in the apical solution following addition of urea to the basolateral solution.
(§2) cDNAs encoding mouse UT-A3 and UT-B were cloned into pcDNA3.1 and used to generate stably transfected MDCK cell lines. MDCK cells stably expressing rat UT-A1 (MDCK-UT-A1) (see, e.g., Frohlich et al., supra) were obtained as described (see, e.g., Levin et al., FASEB J., supra). Cells were cultured in DMEM containing 10% FBS and 0.5 mg/mL G418. […] Urea flux in the basolateral-to-apical direction across unstimulated and forskolin-stimulated cell layers was measured in response to a 15-mM urea gradient. […]

UT-A1 = biological target: T2, UT-A1 (Rattus norvegicus, UniProt Q62668); assay: Transepithelial urea transport in MDCK cells stably expressing UT-A1; assay type: cell-based; conditions: phloretin 100 μM
T2 construct: expressed in transfected cells; host or cells: MDCK cells (MDCK-UT-A1), obtained as described in cited literature
T2 sequence (Q62668 1-929): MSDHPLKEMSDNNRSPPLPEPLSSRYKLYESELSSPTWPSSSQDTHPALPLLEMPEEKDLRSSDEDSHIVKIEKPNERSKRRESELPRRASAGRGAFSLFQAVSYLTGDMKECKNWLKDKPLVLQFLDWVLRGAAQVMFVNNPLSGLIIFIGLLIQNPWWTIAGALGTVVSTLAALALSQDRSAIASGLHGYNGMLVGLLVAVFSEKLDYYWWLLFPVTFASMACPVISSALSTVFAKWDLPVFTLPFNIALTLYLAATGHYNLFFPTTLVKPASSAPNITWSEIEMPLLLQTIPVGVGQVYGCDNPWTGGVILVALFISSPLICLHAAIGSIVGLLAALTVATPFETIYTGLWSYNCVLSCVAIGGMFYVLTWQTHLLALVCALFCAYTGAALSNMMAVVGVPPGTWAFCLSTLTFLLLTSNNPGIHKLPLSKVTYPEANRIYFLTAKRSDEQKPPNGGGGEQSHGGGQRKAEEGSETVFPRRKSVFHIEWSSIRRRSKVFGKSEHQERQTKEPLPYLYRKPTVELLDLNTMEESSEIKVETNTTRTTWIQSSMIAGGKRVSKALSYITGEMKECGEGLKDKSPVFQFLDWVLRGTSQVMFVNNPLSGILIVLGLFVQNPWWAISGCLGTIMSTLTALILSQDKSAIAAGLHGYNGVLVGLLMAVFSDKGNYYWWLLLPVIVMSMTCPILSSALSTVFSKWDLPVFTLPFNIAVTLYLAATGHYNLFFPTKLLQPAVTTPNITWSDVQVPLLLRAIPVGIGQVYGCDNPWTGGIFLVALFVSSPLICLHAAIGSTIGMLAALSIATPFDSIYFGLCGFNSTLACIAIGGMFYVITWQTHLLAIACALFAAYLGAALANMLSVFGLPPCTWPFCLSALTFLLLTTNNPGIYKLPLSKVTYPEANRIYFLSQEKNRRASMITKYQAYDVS
Experimental: as §1, §2

UT-A3 = biological target: T3, UT-A3 (Mus musculus, UniProt Q8R4T9); assay: Transepithelial urea transport in MDCK cells stably expressing UT-A3; assay type: cell-based; conditions: phloretin 100 μM
T3 construct: expressed in transfected cells
T3 sequence (Q8R4T9 1-461 isoform Q8R4T9-3): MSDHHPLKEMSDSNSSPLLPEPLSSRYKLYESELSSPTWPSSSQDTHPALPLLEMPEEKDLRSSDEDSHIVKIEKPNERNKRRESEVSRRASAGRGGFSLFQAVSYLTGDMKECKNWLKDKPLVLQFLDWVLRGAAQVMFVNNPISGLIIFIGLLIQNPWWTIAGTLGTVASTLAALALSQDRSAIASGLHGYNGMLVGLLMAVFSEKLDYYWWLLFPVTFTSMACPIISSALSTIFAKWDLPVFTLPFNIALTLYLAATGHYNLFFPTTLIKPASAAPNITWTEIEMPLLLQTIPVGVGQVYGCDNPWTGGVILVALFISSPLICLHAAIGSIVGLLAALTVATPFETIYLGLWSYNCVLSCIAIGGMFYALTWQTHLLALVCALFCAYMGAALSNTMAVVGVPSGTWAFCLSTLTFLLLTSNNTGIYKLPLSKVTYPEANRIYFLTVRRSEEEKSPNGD
Experimental: as §1, §2

TMEM16A = biological target: T4, TMEM16A (Homo sapiens, UniProt Q5XXA6); assay: TMEM16A calcium-activated chloride conductance by short-circuit current; assay type: cell-based; conditions: 100 μM
T4 construct: expressed in transfected cells
T4 sequence (Q5XXA6 1-986): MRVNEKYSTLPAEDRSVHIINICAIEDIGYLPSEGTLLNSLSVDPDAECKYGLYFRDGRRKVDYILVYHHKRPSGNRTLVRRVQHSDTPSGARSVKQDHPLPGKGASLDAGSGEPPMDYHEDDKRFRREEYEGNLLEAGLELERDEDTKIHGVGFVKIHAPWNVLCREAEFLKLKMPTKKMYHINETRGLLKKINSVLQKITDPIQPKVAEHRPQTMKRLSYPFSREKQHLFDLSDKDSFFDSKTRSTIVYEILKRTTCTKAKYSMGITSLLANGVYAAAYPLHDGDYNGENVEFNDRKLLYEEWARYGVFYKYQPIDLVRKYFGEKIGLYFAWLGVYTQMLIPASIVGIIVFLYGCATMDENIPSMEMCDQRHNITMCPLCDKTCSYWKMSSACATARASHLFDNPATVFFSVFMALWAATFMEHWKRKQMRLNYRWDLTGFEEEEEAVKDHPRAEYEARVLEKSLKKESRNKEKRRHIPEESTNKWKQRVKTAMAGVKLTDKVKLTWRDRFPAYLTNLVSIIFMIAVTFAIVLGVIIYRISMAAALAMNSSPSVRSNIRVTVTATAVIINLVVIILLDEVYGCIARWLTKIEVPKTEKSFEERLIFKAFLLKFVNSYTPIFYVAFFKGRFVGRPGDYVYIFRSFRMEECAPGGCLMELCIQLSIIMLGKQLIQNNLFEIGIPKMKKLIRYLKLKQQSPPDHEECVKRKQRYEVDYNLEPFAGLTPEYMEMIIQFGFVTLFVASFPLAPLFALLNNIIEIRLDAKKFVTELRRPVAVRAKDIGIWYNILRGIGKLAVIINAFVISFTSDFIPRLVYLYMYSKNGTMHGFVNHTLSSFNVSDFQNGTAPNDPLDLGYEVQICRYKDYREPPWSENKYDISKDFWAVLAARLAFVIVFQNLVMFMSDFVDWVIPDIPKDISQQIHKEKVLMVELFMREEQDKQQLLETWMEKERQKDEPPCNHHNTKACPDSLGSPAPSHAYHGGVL
Experimental: CFTR chloride conductance was measured by short-circuit current analysis in Fisher rat thyroid (FRT) cells stably expressing CFTR, as described (see, e.g., Ma et al., J. Biol. Chem. (2002), supra). CFTR chloride conductance was stimulated by forskolin and inhibited by a thiazolidinone compound that inhibits CFTR (CFTRinh-172). TMEM16A calcium-activated chloride conductance was measured by short-circuit current analysis in FRT cells stably expressing TMEM16A, as described (see, e.g., Namkung et al., J. Biol. Chem. 286:2365-2374, 2011. TMEM16A was stimulated by ATP and inhibited by tannic acid (100 μM). Cytotoxicity was measured in MDCK using the MTT assay [3(4,5-dimethyl-thiazol-2-yl)-2,5-diphenyl tetrazolium bromide] by standard procedures.

Compound | concentration exhibiting activity (UT) [mM] | UT-facilitated urea transport (UT-B) (UT-B) | UT-facilitated urea transport (UT-A1) (UT-A1) | UT-facilitated urea transport (UT-A3) (UT-A3) | ATP-induced current (TMEM16A) (TMEM16A)
O=C(CCc1ccc(O)cc1)c1c(O)cc(O)cc1O [phloretin, reference compound] | > 0.5 | inhibited | inhibited | inhibited | –
O=C(OC[C@H]1O[C@@H](OC(=O)c2cc(O)c(O)c(OC(=O)c3cc(O)c(O)c(O)c3)c2)[C@H](OC(=O)c2cc(O)c(O)c(OC(=O)c3cc(O)c(O)c(O)c3)c2)[C@@H](OC(=O)c2cc(O)c(O)c(OC(=O)c3cc(O)c(O)c(O)c3)c2)[C@@H]1OC(=O)c1cc(O)c(O)c(OC(=O)c2cc(O)c(O)c(O)c2)c1)c1cc(O)c(O)c(OC(=O)c2cc(O)c(O)c(O)c2)c1 [tannic acid, reference compound] | – | – | – | – | blocked
